From patent publication US20160326142A1, “PYRAZOLE CARBOXAMIDE COMPOUNDS, COMPOSITIONS AND METHODS OF USE” (Genentech, Inc., priority 2012, published 2016)

These molecules were tested against T1, ITK (Homo sapiens, UniProt Q08881) (assay: ITK enzyme assay (Caliper or LCMS peptide phosphorylation)). Conditions: purified ITK (Invitrogen PV3875), 20 μM ATP, Ki by Morrison's quadratic equation.
T1 construct: purchased Invitrogen PV3875
T1 sequence (Q08881 1-620): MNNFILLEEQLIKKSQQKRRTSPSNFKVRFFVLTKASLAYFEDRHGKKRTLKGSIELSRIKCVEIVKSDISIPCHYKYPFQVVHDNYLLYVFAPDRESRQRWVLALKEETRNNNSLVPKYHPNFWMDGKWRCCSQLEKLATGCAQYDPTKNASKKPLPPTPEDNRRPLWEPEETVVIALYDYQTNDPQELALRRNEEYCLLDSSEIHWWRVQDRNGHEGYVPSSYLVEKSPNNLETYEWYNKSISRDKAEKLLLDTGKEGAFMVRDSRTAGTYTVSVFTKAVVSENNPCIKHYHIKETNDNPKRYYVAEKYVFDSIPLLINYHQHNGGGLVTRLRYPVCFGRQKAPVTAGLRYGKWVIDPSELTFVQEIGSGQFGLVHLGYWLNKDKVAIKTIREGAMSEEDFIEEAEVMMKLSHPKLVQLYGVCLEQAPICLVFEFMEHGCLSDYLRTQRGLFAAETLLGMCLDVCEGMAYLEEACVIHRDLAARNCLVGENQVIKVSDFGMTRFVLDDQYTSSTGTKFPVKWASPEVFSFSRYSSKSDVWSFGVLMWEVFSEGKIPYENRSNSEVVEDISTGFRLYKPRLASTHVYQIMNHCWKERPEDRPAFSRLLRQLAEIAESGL
Format: biochemical
Outline: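 Ki values come from Morrison quadratic fits of activity versus inhibitor concentration, adjusted for ATP-competitive inhibition against ATP/Km,app. Substrate and phosphopeptide from purified ITK reactions were resolved either microfluidically (Caliper, EDTA stop) or by LC-MS MRM (TCA stop).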

| Ki [nM] | Structure (SMILES) |
| --- | --- |
| 1 | CC1(C)CCc2c(C(=O)Nc3cnn(C(CCN4CC(F)(F)C4)c4ccccc4)c3)n[nH]c2C1 (single isomer, unassigned) [Example 121b, N-(1-(3-(3,3-difluoroazetidin-1-yl)-1-phenylpropyl)-1H-pyrazol-4-yl)-6,6-dimethyl-4,5,6,7-tetrahydro-1H-indazole-3-carboxamide] |
| 88 | CN1CCC2(CCc3c(C(=O)Nc4cnn(Cc5ccccc5)c4)n[nH]c3C2)C1=O (single isomer, unassigned) [Example 123a, N-(1-benzyl-1H-pyrazol-4-yl)-1′-methyl-2′-oxo-1,4,5,7-tetrahydrospiro[indazole-6,3′-pyrrolidine]-3-carboxamide] |
| 2 | CC1(C)CCc2c(C(=O)Nc3cnn(C(c4cccc(S(C)(=O)=O)c4)C4CC4)c3)n[nH]c2C1 (single isomer, unassigned) [Example 125a, N-(1-(cyclopropyl(3-(methylsulfonyl)phenyl)methyl)-1H-pyrazol-4-yl)-6,6-dimethyl-4,5,6,7-tetrahydro-1H-indazole-3-carboxamide] |
| 10 | CC1(C)CCc2c(C(=O)Nc3cnn(C(c4cccc(S(C)(=O)=O)c4)C4CC4)c3)n[nH]c2C1 (single isomer, unassigned) [Example 125b, N-(1-(cyclopropyl(3-(methylsulfonyl)phenyl)methyl)-1H-pyrazol-4-yl)-6,6-dimethyl-4,5,6,7-tetrahydro-1H-indazole-3-carboxamide] |
| 2 | CC1(C)CCc2c(C(=O)Nc3cnn(C(c4cccc(S(C)(=O)=O)c4)C4CCOC4)c3)n[nH]c2C1 (single isomer, unassigned) [Example 126a, 6,6-dimethyl-N-(1-((3-(methylsulfonyl)phenyl)(tetrahydrofuran-3-yl)methyl)-1H-pyrazol-4-yl)-4,5,6,7-tetrahydro-1H-indazole-3-carboxamide] |
| 0.1 | CC1(C)CCc2c(C(=O)Nc3cnn(C(c4cccc(S(C)(=O)=O)c4)C4CCOC4)c3)n[nH]c2C1 (single isomer, unassigned) [Example 126b, 6,6-dimethyl-N-(1-((3-(methylsulfonyl)phenyl)(tetrahydrofuran-3-yl)methyl)-1H-pyrazol-4-yl)-4,5,6,7-tetrahydro-1H-indazole-3-carboxamide] |
| 4 | CC1(C)CCc2c(C(=O)Nc3cnn(C(c4cccc(S(C)(=O)=O)c4)C4CCOC4)c3)n[nH]c2C1 (single isomer, unassigned) [Example 126c, 6,6-dimethyl-N-(1-((3-(methylsulfonyl)phenyl)(tetrahydrofuran-3-yl)methyl)-1H-pyrazol-4-yl)-4,5,6,7-tetrahydro-1H-indazole-3-carboxamide] |
| 0.2 | CC1(C)CCc2c(C(=O)Nc3cnn(C(c4cccc(S(C)(=O)=O)c4)C4CCOC4)c3)n[nH]c2C1 (single isomer, unassigned) [Example 126d, 6,6-dimethyl-N-(1-((3-(methylsulfonyl)phenyl)(tetrahydrofuran-3-yl)methyl)-1H-pyrazol-4-yl)-4,5,6,7-tetrahydro-1H-indazole-3-carboxamide] |
| 0.2 | CC1(C)CCc2c(C(=O)Nc3cnn(C(c4ccccc4)C4CNCCS4(=O)=O)c3)n[nH]c2C1 (single isomer, unassigned) [Example 127a] |
| 6 | CC1(C)CCc2c(C(=O)Nc3cnn(C(c4ccccc4)C4CNCCS4(=O)=O)c3)n[nH]c2C1 (single isomer, unassigned) [Example 127b] |
| 0.7 | CN1CC(C(c2ccccc2)n2cc(NC(=O)c3n[nH]c4c3CCC(C)(C)C4)cn2)CN(C)C1=O (single isomer, unassigned) [Example 129a, N-(1-((1,3-dimethyl-2-oxohexahydropyrimidin-5-yl)(phenyl)methyl)-1H-pyrazol-4-yl)-6,6-di methyl-4,5,6,7-tetrahydro-1H-indazole-3-carboxamide] |
| 6 | CN1CC(C(c2ccccc2)n2cc(NC(=O)c3n[nH]c4c3CCC(C)(C)C4)cn2)CN(C)C1=O (single isomer, unassigned) [Example 129b, N-(1-((1,3-dimethyl-2-oxohexahydropyrimidin-5-yl)(phenyl)methyl)-1H-pyrazol-4-yl)-6,6-di methyl-4,5,6,7-tetrahydro-1H-indazole-3-carboxamide] |
| 25 | C#CC1(C)CCc2c(C(=O)Nc3cnn(Cc4ccccc4)c3)n[nH]c2C1 (single isomer, unassigned) [Example 130a, N-(1-benzyl-1H-pyrazol-4-yl)-6-ethynyl-6-methyl-4,5,6,7-tetrahydro-1H-indazole-3-carboxamide] |
| 2 | C#CC1(C)CCc2c(C(=O)Nc3cnn(Cc4ccccc4)c3)n[nH]c2C1 (single isomer, unassigned) [Example 130b, N-(1-benzyl-1H-pyrazol-4-yl)-6-ethynyl-6-methyl-4,5,6,7-tetrahydro-1H-indazole-3-carboxamide] |
| 1 | CN1CCN(CC(c2ccccc2)n2cc(NC(=O)c3n[nH]c4c3CCC(C)(C)C4)cn2)C1=O (single isomer, unassigned) [Example 131a, 6,6-dimethyl-N-(1-(2-(3-methyl-2-oxoimidazolidin-1-yl)-1-phenylethyl)-1H-pyrazol-4-yl)-4,5,6,7-tetrahydro-1H-indazole-3-carboxamide] |
| 11 | CN1CCN(CC(c2ccccc2)n2cc(NC(=O)c3n[nH]c4c3CCC(C)(C)C4)cn2)C1=O (single isomer, unassigned) [Example 131b, 6,6-dimethyl-N-(1-(2-(3-methyl-2-oxoimidazolidin-1-yl)-1-phenylethyl)-1H-pyrazol-4-yl)-4,5,6,7-tetrahydro-1H-indazole-3-carboxamide] |
| 77 | CC1(C)CCc2c(C(=O)Nc3cnn(C4COCC4c4ccccc4)c3)n[nH]c2C1 (single isomer, unassigned) [Example 132a, 6,6-dimethyl-N-(1-(4-phenyltetrahydrofuran-3-yl)-1H-pyrazol-4-yl)-4,5,6,7-tetrahydro-1H-indazole-3-carboxamide] |
| 10 | CC1(C)CCc2c(C(=O)Nc3cnn(C4COCC4c4ccccc4)c3)n[nH]c2C1 (single isomer, unassigned) [Example 132b, 6,6-dimethyl-N-(1-(4-phenyltetrahydrofuran-3-yl)-1H-pyrazol-4-yl)-4,5,6,7-tetrahydro-1H-indazole-3-carboxamide] |
| 0.4 | CC1(C)CCc2c(C(=O)Nc3cnn(C(c4ccnc(N)c4)C4CCOCC4)c3)n[nH]c2C1 (single isomer, unassigned) [Example 133a, N-(1-((2-aminopyridin-4-yl)(tetrahydro-2H-pyran-4-yl)methyl)-1H-pyrazol-4-yl)-6,6-dimethyl-4,5,6,7-tetrahydro-1H-indazole-3-carboxamide] |
| 2 | CC1(C)CCc2c(C(=O)Nc3cnn(C(c4ccnc(N)c4)C4CCOCC4)c3)n[nH]c2C1 (single isomer, unassigned) [Example 133b, N-(1-((2-aminopyridin-4-yl)(tetrahydro-2H-pyran-4-yl)methyl)-1H-pyrazol-4-yl)-6,6-dimethyl-4,5,6,7-tetrahydro-1H-indazole-3-carboxamide] |
| 130 | CC1(C)CCc2c(C(=O)Nc3cnn([C@@H]4COC[C@H]4c4ccccc4)c3)n[nH]c2C1 (single isomer, unassigned) [Example 135a, 6,6-dimethyl-N-(1-(4-phenyltetrahydrofuran-3-yl)-1H-pyrazol-4-yl)-4,5,6,7-tetrahydro-1H-indazole-3-carboxamide] |
| 14 | CC1(C)CCc2c(C(=O)Nc3cnn([C@@H]4COC[C@H]4c4ccccc4)c3)n[nH]c2C1 (single isomer, unassigned) [Example 135b, 6,6-dimethyl-N-(1-(4-phenyltetrahydrofuran-3-yl)-1H-pyrazol-4-yl)-4,5,6,7-tetrahydro-1H-indazole-3-carboxamide] |
| 1 | CC1CC(C(c2ccccc2)n2cc(NC(=O)c3n[nH]c4c3CCC(C)(C)C4)cn2)CCS1(=O)=O (single isomer, unassigned) [Example 139a, 6,6-dimethyl-N-(1-((2-methyl-1,1-dioxidotetrahydro-2H-thiopyran-4-yl)(phenyl)methyl)-1H-pyrazol-4-yl)-4,5,6,7-tetrahydro-1H-indazole-3-carboxamide] |
| 0.7 | CC1CC(C(c2ccccc2)n2cc(NC(=O)c3n[nH]c4c3CCC(C)(C)C4)cn2)CCS1(=O)=O (single isomer, unassigned) [Example 139b, 6,6-dimethyl-N-(1-((2-methyl-1,1-dioxidotetrahydro-2H-thiopyran-4-yl)(phenyl)methyl)-1H-pyrazol-4-yl)-4,5,6,7-tetrahydro-1H-indazole-3-carboxamide] |
| 12 | CC1CC(C(c2ccccc2)n2cc(NC(=O)c3n[nH]c4c3CCC(C)(C)C4)cn2)CCS1(=O)=O (single isomer, unassigned) [Example 139c, 6,6-dimethyl-N-(1-((2-methyl-1,1-dioxidotetrahydro-2H-thiopyran-4-yl)(phenyl)methyl)-1H-pyrazol-4-yl)-4,5,6,7-tetrahydro-1H-indazole-3-carboxamide] |
